The target in the assay is T1, human IDO1 (Homo sapiens, UniProt P14902).
T1 construct: expressed in transfected cells
The assay can be described thus: HEK293 human IDO1 cell-based IDO inhibition assay. As to conditions: read-out: HEK Human IDO-1 Potency. As to the method: 1HEK293 cells were transfected with a pCDNA-based mammalian expression vector harboring human IDO1 cDNA (NM 002164.2) by electroporation. They were cultured in medium (DMEM with 10% FBS) containing 1 mg/ml G418 for two weeks. Clones of HEK293 cells that stably expressed human IDO1 protein were selected and expanded for IDO inhibition assay.
The human IDOL/HEK293 cells were seeded at 10,000 cells per 50 μL per well with RPMI/phenol red free media contains 10% FBS in a 384-well black wall clear bottom tissue culture plate (Matrix Technologies LLC) 100 nL of certain concentration of compound was then added to each well using ECHO liquid handling systems. The cells were incubated for 20 hours in 37° C. incubator with 5% CO2.
The compound treatments were stopped by adding Trichloroacetic Acid (Sigma-Aldrich) to a final concentration at 0.2%. The cell plate was further incubated at 50° C. for 30 minute. The equal volume supernatant (20 μL) and 0.2% (w/v) Ehrlich reagent (4-dimethylaminobenzaldehyde, Sigma-Aldrich) in glacial acetic acid were mixed in a new clear bottom 384-well plate. This plate was then incubated at room temperature for 30 minute. The absorbance at 490 nm was measured on Envision plate reader.

T1 sequence (P14902 whole entry): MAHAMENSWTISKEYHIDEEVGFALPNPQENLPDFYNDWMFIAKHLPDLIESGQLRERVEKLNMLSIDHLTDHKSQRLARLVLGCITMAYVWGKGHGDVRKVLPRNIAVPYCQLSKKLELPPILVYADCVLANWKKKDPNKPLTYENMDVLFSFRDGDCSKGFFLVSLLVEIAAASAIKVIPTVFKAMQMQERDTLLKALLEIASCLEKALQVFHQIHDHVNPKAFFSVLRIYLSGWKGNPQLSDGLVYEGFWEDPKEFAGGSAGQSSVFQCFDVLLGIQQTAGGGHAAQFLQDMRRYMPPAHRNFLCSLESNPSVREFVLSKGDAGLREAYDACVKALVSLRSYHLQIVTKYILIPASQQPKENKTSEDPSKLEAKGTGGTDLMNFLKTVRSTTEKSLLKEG

Regarding `Cc1ccc(NC(=O)CC2CCN(c3ccnc4ccc(F)cc34)CC2)c(F)c1` [Example 118], the IC50 is greater than 250 nM.

As to `CC(C(=O)Nc1ccc(F)cc1)N1CCC(Oc2ccnc3ccc(F)cc23)CC1` (stereo not drawn) [compound 99], the IC50 was less than 50 nM.

As for `COC(=O)c1cccc(NC(=O)[C@H](C)[C@H]2CC[C@@H](c3ccnc4ccc(F)cc43)CC2)c1` [Example 67, methyl 3-((R)-2-((cis)-4-(6-fluoroquinolin-4-yl)cyclohexyl)propanamido)benzoate], the IC50 is less than 50 nM.

With `Cc1ccc(NC(=O)C(C)N2CCC(Oc3ccnc4ccc(F)cc34)CC2)cc1` (single isomer, unassigned) [compound 110], the IC50 is greater than 250 nM.

Turning to `CCC(C(=O)Nc1ccc(Cl)cc1)N1CCC(Oc2ccnc3ccc(F)cc23)CC1` (stereo not drawn) [compound 112], the IC50 was greater than 250 nM.

Take `C=CC[C@@H](C(=O)Nc1ccc(Cl)cc1N)[C@H]1CC[C@@H](c2ccnc3ccc(F)cc32)CC1` [Example 241, (R)-N-(2-amino-4-chlorophenyl)-2-(cis-4-(6-fluoroquinolin-4-yl)cyclohexyl)pent-4-enamide]: the IC50 was less than 50 nM.

As for `C[C@@H](C(=O)Nc1ccc(Cl)cc1)[C@H]1CC[C@H](c2ccnc3ccc(I)cc32)CC1` (single isomer, unassigned) [Example 152d], the IC50 was less than 50 nM.

For the compound `Cc1ccc(NC(=O)C(C)N2CCC(Oc3ccc4nccc(Cl)c4c3)CC2)cc1` (racemic) [Example 92, (±)-2-(4-((4-Chloroquinolin-6-yl)oxy)piperidin-1-yl)-N-(p-tolyl)propanamide], the IC50 was greater than 250 nM.

`C[C@@H](C(=O)Nc1ccncc1)[C@H]1CC[C@@H](c2ccnc3ccc(F)cc32)CC1` [Example 74, (R)-2-((cis)-4-(6-fluoroquinolin-4-yl)cyclohexyl)-N-(pyridin-4-yl)propanamide]: the IC50 was less than 50 nM.

For the compound `CCCC(C(=O)NC1(C)CCCCC1)N1CCN(c2ccnc3ccc(F)cc23)CC1` (racemic) [Example 247, (±)-2-(4-(6-Fluoroquinolin-4-yl)piperazin-1-yl)-N-(1-methylcyclohexyl)pentanamide], the IC50 is greater than 250 nM.

`CCOc1ccc(NC(=O)C(C)N2CCC(Oc3ccnc4ccc(F)cc34)CC2)cc1` (stereo not drawn) [compound 107]: the IC50 was less than 50 nM.

For the compound `C[C@@H](C(=O)Nc1ccc(Cl)cc1)[C@H]1CC[C@@H](c2ccnc3ncccc32)CC1` (single isomer, unassigned) [Example 148b], the IC50 was less than 50 nM.

Regarding `C[C@H](C(=O)Nc1ccc(Cl)cc1)[C@H]1CC[C@@H](c2ccnc3ccnn32)CC1` (single isomer, unassigned) [Example 144a], the IC50 was less than 50 nM.

Turning to `C[C@H](C(=O)Nc1ccc(Cl)cc1)[C@H]1CC[C@@H](c2ccnc3cn[nH]c32)CC1` (single isomer, unassigned) [Example 150a], the IC50 was less than 50 nM.

In the case of `CCC(C(=O)Nc1ccc(Cl)cc1)[C@H]1CC[C@H](Oc2ccnc3ccccc23)CC1` (mixture of isomers) [Example 85, (±)—N-(4-Chlorophenyl)-2-((trans)-4-(quinolin-4-yloxy)cyclohexyl)butanamide], the IC50 is less than 50 nM.

As for `C[C@H](C(=O)Nc1ccc(Cl)cc1)[C@H]1CC[C@H](c2ccnc3ncccc32)CC1` (single isomer, unassigned) [Example 148c], the IC50 is less than 50 nM.

`CCC(C(=O)Nc1ccc(Cl)cc1)[C@H]1CC[C@H](Oc2ccnc3cc(C(F)(F)F)ccc23)CC1` (single isomer, unassigned) [Example 83a, N-(4-Chlorophenyl)-2-((trans)-4-((7-(trifluoromethyl)quinolin-4-yl)oxy)cyclohexyl)-2-butanamide]: the IC50 was greater than 250 nM.

With `CC(C(=O)Nc1ccc(Br)cc1)N1CCN(c2ccnc3ccc(F)cc23)CC1` (racemic) [Example 127, (±)—N-(4-Bromophenyl)-2-(4-(6-fluoroquinolin-4-yl)piperazin-1-yl)propanamide], the IC50 is greater than 250 nM.

These data come from patent US20180282281A1, “IMMUNOREGULATORY AGENTS” (FLEXUS BIOSCIENCES, INC., priority 2014, published 2018).
